18 compounds from paper PMC11758220, “Identification of a Privileged Scaffold for Inhibition of Sterol Transport Proteins through the Synthesis and Ring Distortion of Diverse, Pseudo-Natural Products” (ACS Central Science, 2025) can be followed below.

Bounds are passed on as bounds.

Holding throughout (assay type): binding
Experiment [1] concerns the target T1, Aster-C (Homo sapiens, UniProt Q8IYS0).
T1 construct: -C(318-504); GST (PreScission-cleavable) (N, cleaved yes); made in house; host or cells: E. coli OverExpress C41
Kind of experiment: Fluorescence polarisation (FP) competition with NBD-cholesterol, Aster-C. Particulars: for IC50: mean of three experiments run in technical duplicates; for inhibition at 10 µM / Aster-C (FP) inhibition: single dose, Dose = 10 µM. From the text: (§1) Protein expression constructs
(§2) Human ASTER domains of Aster-A(359-547), -B(364-552) and -C(318-504) were subcloned into a pGEX-6p-2rbs vector, thus introducing the cloning artifact ‘GPLGS’.3 The pGEX-6P-1-GST-OSBP(377- […]
(§3) a gift from James H. Hurley (University of California).4 The pHIS_2His6_Thrombin_STARD4(2-205;C75S) plasmid was a gift from Young Jun Im (Chonnam National University).5 STARD5A was a gift from Nicola Burgess-Brown (Addgene plasmid #42392; http://n2t.net/addgene:42392; […]
(§4) Protein expression and purification […]
(§5) vectors including an N-terminal PreScission-cleavable glutathione S-transferase (GST)-tag were expressed in Escherichia coli (E. coli) OverExpress C41 in Terrific Broth (TB) medium for 16 h at 18 °C after the induction with 0.1 mM isopropyl β-D-1-thiogalactopyranoside (IPTG). Cells were harvested at 3500 × g for 15 minutes and lysed by sonication in buffer containing 50 mM HEPES pH 7.5, 300 mM NaCl, 10 %v/v glycerol, 5 mM dithiothreitol (DTT), 0.1 %v/v Triton X-100 and protease inhibitor mix HP plus (Serva). The lysate was purified by affinity chromatography on a GSTrap FF column (Cytiva) using an ÄKTA Start (Cytiva) in buffer containing 50 mM HEPES pH 7.5, 300 mM NaCl, 10 %v/v glycerol, 5 mM DTT and 0.01 %v/v Triton X-100. The GST-tag was cleaved overnight on the column at 4 °C. The Aster sterol binding domains were further purified by size-exclusion chromatography (SEC) on a HiLoad 16/600 Superdex 75 pg (Cytiva) in buffer containing 20 mM HEPES pH 7.5, 300 mM NaCl, 10 %v/v […]
(§6) STARD5(6-213) harboring an N-terminal His6-Tag were expressed in E. coli BL21(DE3) in Luria-Bertani Broth (LB) medium for approximately 16 h at 18 °C after induction with 0.15 mM IPTG. Cells were harvested at 3500 × g for 15 minutes and lysed by sonication in buffer containing 50 mM HEPES pH 7.5, 150 mM NaCl, 5 %v/v glycerol, 5 mM DTT, 0.1 %v/v Triton X -100 and ethylenediaminetetraacetic acid (EDTA)-free protease inhibitor cocktail (Sigma-Aldrich). The cleared lysate was purified by affinity chromatography on a Ni-NTA Superflow Cartridge (Qiagen) using an ÄKTA Start (Cytiva) in buffer containing 50 mM HEPES pH 7.5, 150 mM NaCl, 5 %v/v glycerol, 5 mM DTT. START domains were eluted by using elution buffer containing 50 mM HEPES pH 7.5, 150 mM NaCl, 5 %v/v glycerol, 5 mM DTT and 500 mM imidazole. Proteins were further purified by SEC on a HiLoad 16/600 Superdex 75 pg (Cytiva) in buffer containing 20 mM HEPES pH 7.5, 150 mM NaCl, 5 %v/v glycerol and 2 mM DTT.
(§7) The ORP domain of human OSBP(377-807) in the pGEX-6p-1 vector with an N-terminal PreScission-cleavable GST-tag was expressed in E. coli OverExpress C41 in LB medium for 16 h at 18 °C after induction with 0.1 mM IPTG. Cells were harvested at 3500 × g for 15 minutes and lysed by sonication in buffer containing 20 mM HEPES pH 7.5, 300 mM NaCl, 10 %v/v glycerol, 5 mM DTT, 0.1 %v/v Triton X-100 and EDTA-free protease inhibitor cocktail (Sigma-Aldrich). The cleared lysate was purified by affinity chromatography on a GSTrap HF column (Cytiva) using an ÄKTA Start (Cytiva) in buffer containing 20 mM HEPES pH 7.5, 300 mM NaCl, 10 %v/v glycerol, 5 mM DTT. OSBP(377 -807) was eluted by using elution buffer containing 20 mM HEPES pH 7.5, 300 mM NaCl, 10 %v/v glycerol, 5 mM DTT and 10 mM reduced glutathione. Proteins were further purified by SEC on a HiLoad 16/600 Superdex 75 pg (Cytiva) using an ÄKTA Explorer (Cytiva) in buffer containing 20 mM HEPES pH 7.5, 150 mM NaCl, 10 %v/v glycerol and 2 mM DTT.
(§8) The ORP domains of human ORP1(534-950) in pET24b(+) and ORP2(49-480) in the pET24b(+) vector including an N-terminal His6-Tag were expressed in E. coli BL21(DE3) in TB medium for approximately 16 h at 18 °C after induction with 0.1 mM IPTG. Cells were collected at 3500 × g for 15 minutes and lysed by sonification in buffer containing 10 mM Tris-HCl pH 8, 300 mM NaCl, 5 % glycerol, 2 mM DTT, 0.1 % Triton X-100 and EDTA-free protease inhibitor cocktail (Sigma-Aldrich). The cleared […]

Experiment [2] deals with T2, OSBP (Homo sapiens, UniProt P22059).
T2 construct: OSBP(377-807); host or cells: E. coli OverExpress C41
T2 sequence (P22059 377-807): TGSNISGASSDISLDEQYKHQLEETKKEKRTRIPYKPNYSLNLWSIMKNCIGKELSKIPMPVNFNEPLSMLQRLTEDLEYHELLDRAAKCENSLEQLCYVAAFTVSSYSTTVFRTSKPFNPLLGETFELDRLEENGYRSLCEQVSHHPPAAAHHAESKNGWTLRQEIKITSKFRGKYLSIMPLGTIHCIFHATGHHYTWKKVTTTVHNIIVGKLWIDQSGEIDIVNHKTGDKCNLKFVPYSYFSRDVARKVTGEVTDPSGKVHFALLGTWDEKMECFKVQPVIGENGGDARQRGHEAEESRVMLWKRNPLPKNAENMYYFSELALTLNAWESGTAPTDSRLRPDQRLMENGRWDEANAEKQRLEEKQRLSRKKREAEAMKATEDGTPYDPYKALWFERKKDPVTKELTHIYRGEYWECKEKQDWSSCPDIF
Kind of experiment: Fluorescence polarisation (FP) competition with NBD-cholesterol, OSBP. Particulars: single dose; for OSBP (FP) inhibition: Dose = 10 µM.
Text: as §1, §2, §3, §4, §5, §6, §7, §8
On the technique in general: Polarisation of emitted light reports the rotation of a fluorescent probe.

Experiment [3] addresses T3, STARD1 (Homo sapiens, UniProt P49675).
T3 construct: STARD1(66-284); made in house; host or cells: E. coli BL21(DE3)
T3 sequence (P49675 66-284): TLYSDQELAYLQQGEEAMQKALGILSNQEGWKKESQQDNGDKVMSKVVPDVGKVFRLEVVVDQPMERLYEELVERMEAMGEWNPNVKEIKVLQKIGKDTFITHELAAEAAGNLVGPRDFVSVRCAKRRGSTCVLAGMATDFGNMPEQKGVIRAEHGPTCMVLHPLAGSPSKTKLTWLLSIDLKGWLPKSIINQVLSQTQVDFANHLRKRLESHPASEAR
Kind of experiment: Fluorescence polarisation (FP) competition with NBD-cholesterol, STARD1. Particulars: for IC50: mean of three experiments run in technical duplicates; for inhibition at 10 µM / STARD1 (FP) inhibition: single dose, Dose = 10 µM.

T1 sequence (Q8IYS0 318-504): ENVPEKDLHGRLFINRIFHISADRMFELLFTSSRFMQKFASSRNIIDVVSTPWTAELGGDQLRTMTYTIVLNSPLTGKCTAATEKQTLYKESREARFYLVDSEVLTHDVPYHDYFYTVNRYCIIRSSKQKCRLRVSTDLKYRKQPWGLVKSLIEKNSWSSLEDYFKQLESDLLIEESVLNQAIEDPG

`C[C@]12CC[C@@H]3C[C@H]1CC[C@@]21C(=Nc2ccc(Br)cc21)O3` (racemic) [Compound 15b]: the half-inhibitory concentration (IC50) in experiment [1] and in experiment [3] was greater than 80 µM each time. Besides, the inhibition (usually the change of the read-out against control, counted positive when it falls) at 10 µM in experiment [1] was -1.6%; in experiment [2], 7%; in experiment [3], 27%.
For `CC12CCC3CC1CCC21C(=Nc2ccc(N4CCOCC4)cc21)O3` (racemic) [Compound 19a], the IC50 in experiment [1] and in experiment [3] was greater than 80 µM each time. Further, the inhibition at 10 µM in experiment [1] was -5%; in experiment [2], 3%; in experiment [3], 20%.
For the compound `CC12CCC3CC1CCC21C(=Nc2ccc(Br)cc21)O3` (single isomer, unassigned; (+)) [(+)-15b], the IC50 in experiment [1] and in experiment [3] was greater than 80 µM each time. Besides, the inhibition at 10 µM is 0% in experiment [1], 13.1% in experiment [2] and 7% in experiment [3].
As for `CC12CCC3CC1CCC21C(=Nc2ccc(N4CCOCC4)cc21)O3` (single isomer, unassigned; (+)) [(+)-19a], in experiment [1], the IC50 (as a rule, the point on the concentration scale where inhibition reaches its midpoint) is greater than 80 µM and the “Aster-C (FP) inhibition” value is reported as -0.8%. Also, the inhibition at 10 µM in experiment [2] came to 3.4%. In addition, in experiment [3], the IC50 is greater than 80 µM and the “STARD1 (FP) inhibition” value is listed as 12%.
With `CC12CCC3CC1CCC21C(=Nc2ccc(N4CCOCC4)cc21)O3` (single isomer, unassigned; (-)) [(−)-19a], in experiment [1], the half-maximal inhibitory concentration (IC50) is greater than 80 µM and the “Aster-C (FP) inhibition” value is reported as -1.6%. Further, the “OSBP (FP) inhibition” value in experiment [2] was found to be 6.2%. In experiment [3], the IC50 is greater than 80 µM and the “STARD1 (FP) inhibition” value came out at 30%.
In the case of `C[C@@]12CC[C@H]3C[C@@H]1CC[C@]21C(=Nc2ccc(Br)cc21)O3` [(−)-15b], the IC50 in experiment [1] is greater than 80 µM; in experiment [3], 42.6 µM. Further, the inhibition at 10 µM is -0.8% in experiment [1], 2.8% in experiment [2] and 38% in experiment [3].
For `CC(C)Oc1ccc(C(=O)Nc2nc3c(s2)CN(C(=O)OC(C)(C)C)CC3)cc1` [Autogramin-2, reference compound], in experiment [1], the IC50 is greater than 80 µM and the “Aster-C (FP) inhibition” value was -1.6%. Further, the “OSBP (FP) inhibition” value in experiment [2] is listed as 9.0%. For the same compound, in experiment [3], the IC50 was greater than 80 µM and the “STARD1 (FP) inhibition” value turned out to be 22%.
In the case of `Cc1c2c(nc3ccccc13)[C@@]1(C)CC[C@@H](O)C[C@H]1CC2` [Compound 2a], the inhibition at 10 µM in experiment [1] was -2.4%; in experiment [2] it was 10%; in experiment [3], 30%.
In the case of `C[C@]12CC[C@@H](O)C[C@H]1CCc1c2nc2ccccc2c1-c1ccccc1` [Compound 2b], the “Aster-C (FP) inhibition” value in experiment [1] is recorded as -5.6%. The “OSBP (FP) inhibition” value in experiment [2] is on record as -12.0%. Further, in experiment [3], the “STARD1 (FP) inhibition” value was -3.33%.
Regarding `Cc1c2c(nc3cc(Br)ccc13)[C@@]1(C)CC[C@@H](O)C[C@H]1CC2` [Compound 2c], in experiment [1], the “Aster-C (FP) inhibition” value is given as -1.6%. Further, the “OSBP (FP) inhibition” value in experiment [2] was -4.0%. The “STARD1 (FP) inhibition” value in experiment [3] is recorded as 70%.
Consider `C[C@]12CC[C@@H](O)C[C@H]1CCc1c2nc2ccccc2c1-c1ccc(F)cc1` [Compound 2d], for which the inhibition at 10 µM in experiment [1] is -2.4%; in experiment [2], 0%; in experiment [3], -8%.
For the compound `C[C@]12CC[C@@H](O)C[C@H]1CCc1c2nc2ccc(Cl)cc2c1-c1ccccc1` [Compound 2e], in experiment [1], the “Aster-C (FP) inhibition” value is on record as -5%. The “OSBP (FP) inhibition” value in experiment [2] came out at 10.6%. Also, the “STARD1 (FP) inhibition” value in experiment [3] is on record as -8%.
As for `C[C@]12CC[C@@H](O)C[C@H]1CCc1c2[nH]c2ncccc12` [Compound 3], the inhibition at 10 µM is -3.2% in experiment [1], 2.5% in experiment [2] and -3.33% in experiment [3].
On to `C[C@]12CC[C@@H](O)C[C@H]1CCC[C@]21Nc2ccccc2-n2cccc21` [Compound 4], for which the “Aster-C (FP) inhibition” value in experiment [1] is -5.6%. Besides, in experiment [2], the inhibition at 10 µM turned out to be 21% and the “OSBP (FP) inhibition” value was 10.0%. In experiment [3], the “STARD1 (FP) inhibition” value was determined as 20% and the inhibition at 10 µM is 35%.
As to `C[C@]12CC[C@@H](O)C[C@H]1CCC[C@]21NC(=O)c2ccccc2N1` [Compound 5a], in experiment [1], the “Aster-C (FP) inhibition” value is -4% and the inhibition at 10 µM stood at 0%. In addition, in experiment [2], the inhibition at 10 µM was 9.1% and the “OSBP (FP) inhibition” value stood at 15.5%. Moreover, in experiment [3], the “STARD1 (FP) inhibition” value was 1.67% and the inhibition at 10 µM is -1.67%.
On to `C[C@]12CC[C@@H](O)C[C@H]1CCC[C@]21NC(=O)c2ccc(F)cc2N1` [Compound 5b], for which, in experiment [1], the “Aster-C (FP) inhibition” value is -4% and the inhibition at 10 µM is -1.6%. Also, in experiment [2], the inhibition at 10 µM is 8.2% and the “OSBP (FP) inhibition” value is on record as 24.6%. Further, in experiment [3], the “STARD1 (FP) inhibition” value amounted to 1.67% and the inhibition at 10 µM worked out at 3.33%.
On to `COc1ccc2c(c1)C(=O)N[C@]1(CCC[C@@H]3C[C@H](O)CC[C@@]31C)N2` [Compound 5c], for which the “Aster-C (FP) inhibition” value in experiment [1] is on record as -3.2%. In experiment [2], the inhibition at 10 µM stood at 18.2% and the “OSBP (FP) inhibition” value is recorded as 6.4%. Also, in experiment [3], the “STARD1 (FP) inhibition” value was -3.33% and the inhibition at 10 µM was 5%.
On to `C[C@]12CC[C@@H](O)C[C@H]1CCc1nc3ccccc3nc12` [Compound 7a], for which the inhibition at 10 µM in experiment [1] is 19%; in experiment [2], 4%; in experiment [3], 23%.
